Assay results from patent publication US7727980B2, “Tricyclic androgen receptor modulator compounds and methods” (priority 2001, dated 2010).
Where two headings read alike, the source gives them in different places.

Columns and labels:
human AR [1] = target: T1, human AR (Homo sapiens, UniProt P10275); assay: AR whole cell competitive binding assay (3H-DHT), transfected COS-1 cells; design: expressed in transfected cells; transient transfection with pRShAR
T1 sequence (P10275 1-920): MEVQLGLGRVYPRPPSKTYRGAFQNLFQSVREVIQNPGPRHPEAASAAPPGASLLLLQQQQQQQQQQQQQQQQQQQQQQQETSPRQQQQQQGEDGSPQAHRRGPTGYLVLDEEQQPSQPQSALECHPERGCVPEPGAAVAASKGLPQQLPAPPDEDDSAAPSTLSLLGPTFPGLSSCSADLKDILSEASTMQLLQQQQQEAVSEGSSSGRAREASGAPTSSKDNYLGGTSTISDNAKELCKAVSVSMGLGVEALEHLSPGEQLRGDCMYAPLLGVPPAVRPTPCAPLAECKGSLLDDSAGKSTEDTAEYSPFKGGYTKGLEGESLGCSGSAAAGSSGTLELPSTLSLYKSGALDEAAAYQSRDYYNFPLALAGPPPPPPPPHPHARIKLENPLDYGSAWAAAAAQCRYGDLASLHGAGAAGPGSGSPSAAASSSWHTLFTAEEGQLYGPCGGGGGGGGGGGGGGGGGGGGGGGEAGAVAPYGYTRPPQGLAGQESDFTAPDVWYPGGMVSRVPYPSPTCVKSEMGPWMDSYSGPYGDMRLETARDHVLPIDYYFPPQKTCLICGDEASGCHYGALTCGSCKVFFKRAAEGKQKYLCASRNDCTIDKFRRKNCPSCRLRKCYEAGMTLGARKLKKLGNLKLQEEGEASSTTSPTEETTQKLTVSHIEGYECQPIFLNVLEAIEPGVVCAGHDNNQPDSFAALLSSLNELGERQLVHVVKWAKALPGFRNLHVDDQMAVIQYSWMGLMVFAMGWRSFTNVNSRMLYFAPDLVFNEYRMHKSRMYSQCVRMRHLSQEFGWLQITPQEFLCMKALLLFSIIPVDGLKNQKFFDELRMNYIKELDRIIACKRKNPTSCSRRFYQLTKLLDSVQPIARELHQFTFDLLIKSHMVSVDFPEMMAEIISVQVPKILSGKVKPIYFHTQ

human AR [2] = target: T1, human AR; assay: Co-transfection assay, AR agonist activity, CV-1 cells; type: cell-based; design: expressed in transfected cells; host or cells: CV-1 cells (African green monkey kidney fibroblasts), transient transfection with pRShAR; settings: for AR Agonist CV-1 Cells Efficacy (%): percent maximal response relative to reference agonist DHT
human AR [3] = target: T1, human AR; assay: Co-transfection assay, AR antagonist activity in presence of DHT, CV-1 cells; type: cell-based; design: expressed in transfected cells; host or cells: CV-1 cells (African green monkey kidney fibroblasts), transient transfection with pRShAR; settings: for AR Antagonist CV-1 Cells Efficacy (%): percent maximal inhibition, DHT at its EC50 concentration
[4] = COS-1 cells, 1 nM 3H-DHT, Cheng-Prusoff from IC50, read-out: AR Binding Ki
[5] = agonist potency or EC50, read-out: AR Agonist CV-1 Cells Potency
[6] = CV-1 cells, antagonist potency or IC50, DHT at its EC50 concentration, read-out: AR Antagonist CV-1 Cells Potency
[7] = AR Agonist CV-1 Cells Potency (nM), agonist potency or EC50

Molecule	Ki (human AR [1]; [4]) [nM]	EC50 (human AR [2]; [5]) [nM]	AR Agonist CV-1 Cells Efficacy (%) (human AR [2])	IC50 (human AR [3]; [6]) [nM]	AR Antagonist CV-1 Cells Efficacy (%) (human AR [3]; CV-1 cells)	Ki (human AR [1]; read-out: AR Binding Ki) [nM]	EC50 (human AR [2]; [7]) [nM]	IC50 (human AR [3]) [nM]	Ki (human AR [1]; AR Binding Ki (nM), COS-1 cells, 1 nM 3H-DHT, Cheng-Prusoff from IC50) [nM]	IC50 (human AR [3]; AR Antagonist CV-1 Cells Potency (nM), CV-1 cells, antagonist potency or IC50, DHT at its EC50 concentration) [nM]
6-Methyl-7-(2,2,2-trifluoroethyl)-4-trifluoromethyl-7H-pyrrolo[3,2-f]quinolin-2(1H)-one [Compound 152]	67	4.9	74%	> 10000	na (na = not active (i.e. efficacy of <20 and potency of >10,000))	–	–	–	–	–
CCC1C(C)c2c(ccc3[nH]c(=O)ccc23)N1CC(F)(F)F (racemic) [Compound 149, (±)-5,6-cis-Dihydro-5-methyl-6-ethyl-7-(2,2,2-trifluoroethyl)-7H-pyrrolo[3,2-f]quinolin-2(1H)-one]	–	–	na (na = not active (i.e. efficacy of <20 and potency of >10,000))	–	81%	127	> 10000	25	–	–
6-(1-Methoxyethyl)-5-methyl-7-(2,2,2-trifluoroethyl)-4-trifluoromethyl-7H-pyrrolo[3,2-f]quinolin-2(1H)-one [Compound 172]	12	19	89%	> 10000	na (na = not active (i.e. efficacy of <20 and potency of >10,000))	–	–	–	–	–
CCCC1C(CC)c2c(ccc3[nH]c(=O)cc(C(F)(F)F)c23)N1CC(F)(F)F (racemic) [Compound 146, (±)-5,6-Dihydro-5-ethyl-6-propyl-7-(2,2,2-trifluoroethyl)-4-trifluoromethyl-7H-pyrrolo[3,2-f]quinolin-2(1H)-one]	–	–	38%	–	66%	–	49	–	75	1
